Results from US20170131285A1, “METHODS AND COMPOSITIONS FOR DIAGNOSING, MONITORING AND TREATING CANCER” (INSERM (Institut National de la Sante et de la Recherche …, priority 2014, published 2017).
Where no end group is shown, it is not given here.

Columns and labels:
[1] = test system: primary MDSC cells; test: Activation of primary MDSC by exosomes (pSTAT3, IL-6, IL-10, IFNγ in T cell co-culture); format: cell-based; details: primary MDSC from mouse spleen, exosomes from B16F10, A8 16 μM
Method: FIG. 8: A8 blocks the activation of primary MDSC cells. A) A representative image of a western blot showing the kinetics of STAT3 phosphorylation in MDSC cells incubated or not with exosomes isolated from B16F10 cells together with a peptide control (MDSC/TDE) or A8 (MDSC/TDE/A8). B-C) IL-6 (B) and IL-10 (C) concentration was determined by ELISA in the supernatant of MDSC cells incubated or not for 24 h with exosomes (from B16F10) in the absence or presence of A8 (16 μM). D) IFNγ concentration was determined by ELISA in the supernatant of co-cultured MDSC and T lymphocytes incubated or not for 5 days with exosomes (from B16F10) in the absence or presence of A8 ([…]). **, p<0.01; *, p<0.1 (n=3).
(§1) MSC2 (2·10^6) or MDSC (2·10^6) were incubated alone or with exosomes (from B16F10, CT26, HCT116, SW480) in the absence or presence of A8 or A17 (16 μM) during 6 hours (RPMI 10% FBS, 5% of CO2 at 37° C.). Every 2 hours, […] cells were sampled and centrifugated 5 min at 300 g. Cells were lysed in lysis buffer (50 mM HEPES (pH 7.6), 150 mM NaCl, 5 mM EDTA, and 0.1% NP40 and anti-phosphatases, Roche). Then, pSTAT3 and STAT3 expression were analyzed by western blotting.
Single-cell suspensions were prepared from spleens, and red cells were removed using ammonium chloride lysis buffer. […] All events were acquired by a BD Bioscience LSR-II device and analyzed with FlowJo (Tree Star). […]

[2] = test system: MSC2 cells; test: pSTAT3 western blot in MSC2 cells incubated with tumor-derived exosomes; format: cell-based
Method: FIG. 4: A8 blocks the activation and proliferation of MSC2 cells. (A) IL-6 concentration was determined by ELISA in the supernatant of MSC2 cells incubated or not for 24 h with exosomes (from B16F10) in the presence or absence of A8. *, p<0.05, (n=3). (B) A representative image of a western blot showing the kinetics of STAT3 phosphorylation in MCS2 cells incubated or not with exosomes isolated from B16F10, CT26 or HCT116 cells together with a peptide control (TDE) or A8 (TDE/A8). 14-3-3 is used as a loading control. In the right panels, the amount of pSTAT3 was quantified by densitometric analysis. *, p<0.05, n=4.
Five millions of MSC2 cells were incubated with or without exosomes isolated from B16F10, CT26, HCT116 or SW480 cells in the presence or absence of A8 during 4 h or 6 h. Cells were isolated, lysed and analysed for pSTAT3 by western blotting.
as §1

[3] = test system: EL4 tumors; test: EL4 lymphoma tumor model in C57BL6 mice; format: in vivo, mouse
Method: FIG. 10: A8 anti-tumor effect in mice is associated with an increased anti-tumor immune response. Mice were s.c. injected with EL4 cells (7·10^5). On day 5, animals were treated every two days until the end of the experiment with either A0 (control aptamer) or A8 (3 mg/kg, i.p. injection). On day 6, half the animals were i.p. treated with a single dose of 5-fluorouracil (5FU, 25 mg/kg). A) At day 10, the percentage of MDSC (Gr1^+ CD11b^+) cells in the spleen collected from the different groups of mice was analyzed by flow cytometry (6 animals per group). As a negative control (Ctl) we used animals with no tumors. B) Tumor size was measured every two days (6 animals per group; n=3). The open symbols represent animals treated with 5FU. T test: *, p<0.05, **, p<0.01, (n=3). C) EL4 tumor sections were performed 10 days after injection of A8. Dendritic cells and macrophages were labeled using, CD11c and F4/80 antibodies. A representative image is shown (n=6 per group). Labeled cells were counted from 300 cells chosen randomly in different microscopic fields.
Animals were killed 15 or 18 days after cell injection. The site of tumor cell injection was resected and snap-frozen in liquid nitrogen. An immunohistochemical study of tumor-infiltrating inflammatory cells was performed on acetone-fixed 5 μm cryostat sections. Tumoral biopsies were blocked in PBS with 3% of BSA (10 min, RT) anti-CD11c (1/50, monoclonal, BD Pharmingen), anti-CD3 (1/50, monoclonal, BD Pharmingen), anti-F4/80 (1/100, monoclonal, BD Pharmingen), diluted in PBS with 1% of BSA, was added on slides and incubated 45 minutes at RT, after washing with PBS. Nuclei were colored with mounting medium: Prolong Gold with Dapi (Molecular Probe). […] Images were acquired using an AxioCam MRm monochrome CCD camera (Carl Zeiss GmbH). Six pictures were taken in random fields for each labeling, and analyzed using image J software.
To confirm A8 in vivo results shown in FIG. 5, the inventors have used another syngeneic model: lymphoma EL4 tumors developed in C57BL6 mice. […]

Sequence: SPWPRPTY [Aptamer A8, SPWPRPTY]
- MDSC activation markers (IL6 release, STAT-3 phosphorylation, IL10 release, IFNgamma release by T cells) [1]: blocks all MDSC activation markers
- STAT3 phosphorylation (activation) in MSC2 induced by tumor-derived exosomes ([2]; exosomes from CT26, B16F10, HCT116, SW480, 4 h and 6 h, aptamer 16 μM): inhibited the ability of tumor-derived exosomes to activate STAT3
- MDSC activation (STAT3 phosphorylation in MSC2) in the absence of tumor-derived exosomes ([2]; no exosomes): does not have a direct effect in MDSC activation
- tumor infiltration by immune cells [3]: strongly infiltrated by different immune cells
- number of MDSC in the spleen ([3]; A8 3 mg/kg i.p. every two days, day 10): a decrease in the number of MDSC in the spleen
- size of the tumors ([3]; A8 3 mg/kg i.p., with or without single dose 5FU 25 mg/kg i.p.): a decrease in the size of the tumors mainly when added in combination to 5FU
